Measured values from US20240398786A1, “7-ETHYL-10-HYDROXY-CAMPTOTHECIN (SN-38) ALBUMIN CONJUGATES FOR TREATMENT OF CANCERS” (Ohio State Innovation Foundation, priority 2021, published 2024).

Assays:
H23 shCtrl/shCav-1 cells = assay: Uptake by direct fluorescence in H23 shCtrl vs shCav-1 cells; format: cell-based; details: 250 nM pulsed 2 h
Experimental: (§1) Cells were pulsed either 1 hour with 0.1% FITC-HAS or 2 hours with 250 nM SN/38/SSH20 prior to fixation. When applicable, in order to remove membrane-bound albumin, two acid/salt washes were performed with 0.1M glycine and 0.1M NaCl, pH 3.02 for 2 minutes each, followed by two washes with phosphate buffer saline (PBS). Cells were then fixed with 2% paraformaldehyde for 15 minutes at room temperature and washed 1×PBS 2 times for 5 minutes each. Cells were incubated with 0.1% Triton-x-100 for 10 min on ice to permeabilize, then washed twice with 1×PBS prior to blocking with 3% bovine serum albumin in 1×PBS overnight at 4° C. In a humidified chamber, primary antibodies (1:50) in blocking buffer were added and incubated for 1 hour at 4° C., followed by three 10 minute rinses with blocking buffer. Secondary antibody (conjugated to Alexa Fluor 488, 1:1000) was added along with DAPI for 1 hour at room temperature. Cells were then rinsed, and coverslips were mounted onto slides and then sealed. Cells were then imaged with a confocal microscope with locked settings across the control and respective experimental conditions. For auto-fluorescence experiments with SN-30 and SSH20, images were taken at an emission wavelength of 543 nm. ImageJ was used to measure the fluorescence intensity of individual cells.

MP2 cell line = assay: Inhibitory activity of SN-38/HSA conjugates against the MP2 cell line; format: cell-based
Experimental: AlamarBlue proliferation assay was performed according to the manufacturer's instructions (BioRad Antibodies, Oxford, UK). Briefly, cells were seeded in 96-well plates in 4 replicates at a density of 100-300 cells per well in 100 μL medium and treated as described. Seventy-two hours after plating, alamarBlue reagent was added and incubated at 37° C. for 4-8 hours, and absorbance was measured at 570 and 600 nm.

[1] = pharmaceutical solvents; cited from earlier work
[2] = tested on: MIA-PaCa-2 (MP2) shCtrl/shCav-1 cells; assay: Uptake by direct fluorescence in MP2 shCtrl vs shCav-1 cells; format: cell-based; details: 250 nM pulsed 2 h
Experimental: as §1

[3] = tested on: H23-shCtrl/shCav-1 tumors; assay: H23-shCtrl/shCav-1 flank xenografts in athymic nude mice; format: in vivo; details: SSH20 10 mg/kg or molar equivalent of irinotecan, intravenous retro-orbital
Experimental: (§2) Briefly, 180 μL of SSH20 was added to 1620 μL of pooled human serum off the clot (Innovative Research, Novi, MI) to form a 10% SSH20 solution, which was incubated at 37° C. Aliquots were collected at preset time points, a fixed amount of internal standard (10-hydroxycamptothecin, 10-HCPT) was added to each sample aliquot and the solutions were mixed thoroughly on vortex prior to protein precipitation by acetonitrile. Protein precipitates were pulled down by 17,000×g centrifugation for 5 minutes. The dissociated SN-38 in the supernatant was analyzed by reverse-phase HPLC, using parameters described above, detected by PDA at 368 nm. SN-38/internal standard peak ratios were correlated with an SN-38 standard curve (using the same preparation method) to obtain the concentrations of released SN-38. The plot of the kinetics of SN-38 release was generated by Prism, and the half-life was calculated by one-phase exponential association. […] To obtain a tumor growth curve, perpendicular diameter measurements of each tumor were measured every 1-5 days from the first day of injection with digital calipers, and volumes were calculated using the formula (L×W×W)/2. Weight and clinical signs of toxicity were monitored several times per week.

[4] = tested on: MP2-shCtrl/shCav-1 tumors; assay: MP2-shCtrl/shCav-1 flank xenografts in athymic nude mice; format: in vivo; details: SSH20 10 mg/kg or molar equivalent of irinotecan, intravenous retro-orbital
Experimental: as §2

Q: Which results are given for `CCc1c2c(nc3ccc(O)cc13)-c1cc3c(c(=O)n1C2)COC(=O)[C@]3(O)CC` [SN-38, 7-ethyl-10-hydroxy-camptothecin]?
A: difference in SN-38 autofluorescent signal between shCtrl and shCav-1 cells (H23 shCtrl/shCav-1 cells): no discernable difference; IC50 (MP2 cell line): 495 nM; solubility, in words [1]: virtually insoluble in any pharmaceutical solvent; difference in SN-38 autofluorescent signal between shCtrl and shCav-1 cells [2]: no discernable difference

Q: Which results are given for `CCc1c2c(nc3ccc(OC(=O)N4CCC(N5CCCCC5)CC4)cc13)-c1cc3c(c(=O)n1C2)COC(=O)[C@]3(O)CC` [irinotecan, Irinotecan]?
A: tumor growth rate [3]: not reduced; tumor growth rate [4]: not reduced
